The results in this text go back to patent US9132140B2, “Boronic acid derivatives and therapeutic uses thereof” (Rempex Pharmaceuticals, Inc., priority 2013, dated 2015).

pKi: −log10 of the molar value. Where two headings read alike, the source gives them in different places.

Assay [1] deals with T1, KPC-2 (Klebsiella pneumoniae, UniProt Q9F663). The assay can be described thus: Inhibition of purified beta-lactamase, nitrocefin cleavage. The assay is classed as biochemical. Conditions: read-out: Ki (KPC-2, NCF). How it is done:
(§1) Purified enzymes were mixed with various concentrations of inhibitors in reaction buffer and incubated for 10 min at room temperature. Nitrocefin was added and substrate cleavage profiles were recorded at 490 nm every 10 sec for 10 min.

Assay [2] addresses SHV-12 (Klebsiella pneumoniae, UniProt P0AD64, E235K/G234S/L31Q). The description is as above. In kind it is biochemical. Conditions: read-out: Ki (SHV-12, NCF). Here is the method: as §1
The target in assay [3] is OXA-48 (Klebsiella pneumoniae, UniProt Q6XEC0). The assay is described as above. The assay is classed as biochemical. The following applies: read-out: Ki (OXA-48, NCF). How it is done:
as §1

Assay [4] concerns the target CTX-M-14 (Escherichia coli, UniProt Q9L5C7). Described as above. In kind it is biochemical. Here is the method: as §1
Assay [5] concerns the target P99/AmpC of ECL (Enterobacter cloacae, UniProt P05364). The experiment in a line: biochemical. Conditions: nitrocefin; read-out: Ki (P99/AmpC of ECL, NCF). How it is done: as §1
For assay [6], the target named is CMY-2 (Klebsiella pneumoniae, UniProt Q48434). The assay can be described thus: Inhibition of purified beta-lactamase, nitrocefin cleavage. In kind it is biochemical. Here is the method:
as §1

The target in assay [7] is T1, KPC-2. The assay can be described thus: Inhibition of purified class A carbapenemase, biapenem cleavage. The assay is classed as biochemical. Conditions: substrate biapenem 100 μM.
Assay [8] concerns KP1081 (NDM-1, TEM-1, SHV-11, CMY-6, CTX-M-15). In kind it is cell-based, Klebsiella pneumoniae. The following applies: KP1081; alone. The text has this: (§2) The results are present in Table 6.
(§3) The results are present in Table 7.

The test system of assay [9] is KP1087 (KPC-2, CTX-M-15, SHV-11, TEM-1). In kind it is cell-based, Klebsiella pneumoniae. The following applies: KP1087; alone.
Excerpt: as §2, §3

For assay [10], the target named is NDM-1 (Klebsiella pneumoniae, UniProt C7C422). The experiment in a line: biochemical. Conditions: substrate imipenem 100 μM.
Chain of NDM-1 (C7C422 29-270, looked up, species assumed): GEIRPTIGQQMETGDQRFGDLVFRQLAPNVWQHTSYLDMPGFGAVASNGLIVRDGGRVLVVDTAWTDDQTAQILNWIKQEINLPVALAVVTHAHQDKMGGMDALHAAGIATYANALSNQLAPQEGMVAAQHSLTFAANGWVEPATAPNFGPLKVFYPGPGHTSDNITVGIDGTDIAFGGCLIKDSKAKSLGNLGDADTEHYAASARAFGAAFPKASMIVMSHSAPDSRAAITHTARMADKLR
The mark [11] stands for this setting: nitrocefin, read-out: Ki (CMY-2, NCF).

Chain of CTX-M-14 (Q9L5C7 entry or part of it): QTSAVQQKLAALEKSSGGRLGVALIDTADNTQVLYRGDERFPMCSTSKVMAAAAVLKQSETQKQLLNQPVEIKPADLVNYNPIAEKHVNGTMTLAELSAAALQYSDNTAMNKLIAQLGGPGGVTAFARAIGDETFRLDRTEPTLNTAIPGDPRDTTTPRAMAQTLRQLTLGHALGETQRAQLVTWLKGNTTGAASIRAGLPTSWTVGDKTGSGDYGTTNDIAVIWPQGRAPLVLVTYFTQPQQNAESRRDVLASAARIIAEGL
Chain of OXA-48 (Q6XEC0 23-265, looked up): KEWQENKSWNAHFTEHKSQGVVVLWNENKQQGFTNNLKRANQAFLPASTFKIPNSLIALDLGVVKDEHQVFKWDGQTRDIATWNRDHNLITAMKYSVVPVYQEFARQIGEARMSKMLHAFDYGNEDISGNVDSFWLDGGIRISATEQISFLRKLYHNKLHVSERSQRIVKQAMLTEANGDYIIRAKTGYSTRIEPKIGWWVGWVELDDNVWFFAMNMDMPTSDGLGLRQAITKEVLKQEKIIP
Chain of CMY-2 (Q48434 21-381, species assumed): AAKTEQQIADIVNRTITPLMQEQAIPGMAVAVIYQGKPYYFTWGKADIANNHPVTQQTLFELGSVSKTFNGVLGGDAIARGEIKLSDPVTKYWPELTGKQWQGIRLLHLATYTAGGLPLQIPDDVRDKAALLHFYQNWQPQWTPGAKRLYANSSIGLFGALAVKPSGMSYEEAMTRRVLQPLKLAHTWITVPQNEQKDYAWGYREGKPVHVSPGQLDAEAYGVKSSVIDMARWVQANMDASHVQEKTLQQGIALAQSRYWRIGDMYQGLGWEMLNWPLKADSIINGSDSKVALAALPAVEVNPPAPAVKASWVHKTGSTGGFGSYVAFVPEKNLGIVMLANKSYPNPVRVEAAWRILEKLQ
T1 sequence (Q9F663 25-293, looked up, species assumed): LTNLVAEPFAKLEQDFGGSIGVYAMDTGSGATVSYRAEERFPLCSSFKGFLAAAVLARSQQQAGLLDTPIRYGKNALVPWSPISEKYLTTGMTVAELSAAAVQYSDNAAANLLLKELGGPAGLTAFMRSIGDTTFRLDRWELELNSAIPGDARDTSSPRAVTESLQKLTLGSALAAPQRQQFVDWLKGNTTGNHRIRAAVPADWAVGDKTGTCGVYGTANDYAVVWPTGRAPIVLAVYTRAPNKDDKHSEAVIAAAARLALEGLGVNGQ
Chain of P99/AmpC of ECL (P05364 21-381): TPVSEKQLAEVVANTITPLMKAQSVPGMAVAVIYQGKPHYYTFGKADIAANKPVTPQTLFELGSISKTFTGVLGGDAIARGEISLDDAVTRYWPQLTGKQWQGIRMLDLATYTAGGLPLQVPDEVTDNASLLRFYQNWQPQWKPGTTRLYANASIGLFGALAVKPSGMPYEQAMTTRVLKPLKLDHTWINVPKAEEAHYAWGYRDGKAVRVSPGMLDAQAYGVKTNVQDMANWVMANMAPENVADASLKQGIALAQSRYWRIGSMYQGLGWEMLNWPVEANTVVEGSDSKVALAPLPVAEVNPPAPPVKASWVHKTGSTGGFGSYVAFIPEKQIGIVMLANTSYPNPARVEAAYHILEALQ
Chain of SHV-12 (P0AD64 22-286 L31Q/G234S/E235K): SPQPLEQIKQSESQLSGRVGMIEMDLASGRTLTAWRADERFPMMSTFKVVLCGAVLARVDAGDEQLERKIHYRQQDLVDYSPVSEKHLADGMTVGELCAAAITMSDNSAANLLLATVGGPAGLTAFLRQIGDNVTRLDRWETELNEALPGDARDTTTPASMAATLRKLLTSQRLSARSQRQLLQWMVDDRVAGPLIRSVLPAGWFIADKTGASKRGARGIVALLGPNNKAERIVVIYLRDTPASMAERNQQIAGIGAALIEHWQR

As for `O=C(O)c1cccc2c1OB(O)[C@@H](Sc1c[nH]nn1)C2` [Compound 12, (R)-3-(1H-1,2,3-triazol-4-ylthio)-2-hydroxy-3,4-dihydro-2H-benzo[e][1,2]oxaborinine-8-carboxylic acid], the pKi in assay [1] was 6.00 to 7.00.

With `O=C(O)c1cccc2c1OB(O)[C@@H](OC1CNC1)C2` [Compound 18, (R)-3-(azetidin-3-yloxy)-2-hydroxy-3,4-dihydro-2H-benzo[e][1,2]oxaborinine-8-carboxylic acid], the pKi in assay [1] is 6.00 to 7.00; in assay [2], above 7.00; in [3], above 7.00; in assay [4] it was 6.00 to 7.00; in [5], 6.00 to 7.00.

For the molecule `NC(=O)CS[C@H]1Cc2cccc(C(=O)O)c2OB1O` [Compound 3, (R)-3-(2-amino-2-oxoethylthio)-2-hydroxy-3,4-dihydro-2H-benzo[e][1,2]oxaborinine-8-carboxylic acid], the pKi in [1] was above 7.00; in [2], 6.00 to 7.00; in assay [3], above 7.00; in [4], above 7.00; in assay [6] (setting [11]), above 7.00; in assay [5] it was above 7.00. The same molecule showed a pKi in assay [7] of 7.00 to 8.00.

As to `CO[C@H]1Cc2cccc(C(=O)O)c2OB1O` [Compound 17, (R)-2-hydroxy-3-methoxy-3,4-dihydro-2H-benzo[e][1,2]oxaborinine-8-carboxylic acid], the pKi in assay [1], in assay [2], in [3], in assay [4] and in assay [5] was above 7.00 in each case.

Regarding `Nn1cnnc1S[C@H]1Cc2ccc(F)c(C(=O)O)c2OB1O` [Compound 20, (R)-3-(4-amino-4H-1,2,4-triazol-3-ylthio)-7-fluoro-2-hydroxy-3,4-dihydro-2H-benzo[e][1,2]oxaborinine-8-carboxylic acid], the pKi in assay [1] is 6.00 to 7.00; in assay [2] it was above 7.00; in assay [3], 6.00 to 7.00; in [4], above 7.00; in assay [5], 6.00 to 7.00.

As for `CSc1ccc2c(c1C(=O)O)OB(O)[C@@H](Sc1nncn1N)C2` [Compound 25, (R)-3-(4-amino-4H-1,2,4-triazol-3-ylthio)-2-hydroxy-7-(methylthio)-3,4-dihydro-2H-benzo[e][1,2]oxaborinine-8-carboxylic acid], the pKi in assay [1] is 6.00 to 7.00; in [2], above 7.00; in [3] it was above 7.00; in assay [4], above 7.00; in assay [5], 6.00 to 7.00.

On to `Cn1cnnc1S[C@H]1Cc2ccc(F)c(C(=O)O)c2OB1O` [Compound 24, (R)-7-fluoro-2-hydroxy-3-(4-methyl-4H-1,2,4-triazol-3-ylthio)-3,4-dihydro-2H-benzo[e][1,2]oxaborinine-8-carboxylic acid], for which the pKi is 6.00 to 7.00 in [1]; above 7.00 in assay [2]; above 7.00 in [3]; above 7.00 in assay [4]; 6.00 to 7.00 in [5].

As to `NC(=O)CCS[C@H]1Cc2cccc(C(=O)O)c2OB1O` [Compound 9, (R)-3-(3-amino-3-oxopropylthio)-2-hydroxy-3,4-dihydro-2H-benzo[e][1,2]oxaborinine-8-carboxylic acid], the pKi is above 7.00 in assay [1]; 6.00 to 7.00 in assay [2]; above 7.00 in assay [3]; above 7.00 in [4]; above 7.00 in assay [6] (setting [11]); above 7.00 in assay [5].

For `CC(=N)S[C@H]1Cc2cccc(C(=O)O)c2OB1O` [Compound 10, (R)-2-hydroxy-3-(1-iminoethylthio)-3,4-dihydro-2H-benzo[e][1,2]oxaborinine-8-carboxylic acid], the pKi in assay [1] is 6.00 to 7.00.

Consider `C[C@@H](O)[C@H]1C(=O)N2C(C(=O)O)=C(S[C@@H]3CN[C@H](CNS(N)(=O)=O)C3)[C@H](C)[C@H]12` [Doripenem], for which the “Carbapenem MIC alone” value in assay [8] and in [9] was “Z (MIC of greater than 10 μg/mL)” each time.

`NC(=O)CC1Cc2cccc(C(=O)O)c2OB1O` (centres unmarked) [Compound 22, 3-(2-amino-2-oxoethyl)-2-hydroxy-3,4-dihydro-2H-benzo[e][1,2]oxaborinine-8-carboxylic acid]: the pKi in assay [1], in [2], in [3], in assay [4], in [6] (setting [11]) and in assay [5] was above 7.00 throughout.

Regarding `Cn1cnnc1S[C@H]1Cc2cccc(C(=O)O)c2OB1O` [Compound 15, (R)-2-hydroxy-3-(4-methyl-4H-1,2,4-triazol-3-ylthio)-3,4-dihydro-2H-benzo[e][1,2]oxaborinine-8-carboxylic acid], the pKi in assay [1] is 6.00 to 7.00; in assay [2] it was above 7.00; in [3], above 7.00; in assay [4], above 7.00; in assay [6] (setting [11]) it was above 7.00; in [5], above 7.00. Besides, the pKi is above 8.00 in [10] and 7.00 to 8.00 in assay [7].

For `CS[C@H]1Cc2cccc(C(=O)O)c2OB1O` [Compound 16, (R)-2-hydroxy-3-(methylthio)-3,4-dihydro-2H-benzo[e][1,2]oxaborinine-8-carboxylic acid], the pKi in assay [1] is above 7.00; in assay [2], 6.00 to 7.00; in assay [3], above 7.00; in [4], above 7.00; in assay [5], above 7.00; in [10] it was below 7.00. Also, the pKi in assay [7] is 7.00 to 8.00.

Consider `Nc1nnc(S[C@H]2Cc3cccc(C(=O)O)c3OB2O)s1` [Compound 4, (R)-3-(5-amino-1,3,4-thiadiazol-2-ylthio)-2-hydroxy-3,4-dihydro-2H-benzo[e][1,2]oxaborinine-8-carboxylic acid], for which the pKi in [2], in [3], in assay [4], in assay [6] (setting [11]) and in [5] was above 7.00 in each case.

Turning to `CC(=O)Nc1nnc(S[C@H]2Cc3cccc(C(=O)O)c3OB2O)s1` [Compound 7, (R)-3-(5-acetamido-1,3,4-thiadiazol-2-ylthio)-2-hydroxy-3,4-dihydro-2H-benzo[e][1,2]oxaborinine-8-carboxylic acid], the pKi in [2], in assay [3], in assay [4], in [6] (setting [11]) and in assay [5] was above 7.00 throughout.

For the molecule `C[C@@H](O)[C@H]1C(=O)N2C(C(=O)[O-])=C(SC3Cn4cnc[n+]4C3)[C@H](C)[C@H]12` (some centres unmarked) [Biapenem], the “Carbapenem MIC alone” value in assay [8] and in assay [9] was “Z (MIC of greater than 10 μg/mL)” each time.

For the molecule `O=C(O)[C@H]1/C(=C/CO)O[C@@H]2CC(=O)N21` [Clavulanic acid, reference compound], the pKi is below 6.00 in [1]; below 6.00 in assay [3]; above 7.00 in assay [4] (nitrocefin, read-out: Ki (CTX-M-14, NCF)); below 6.00 in assay [6] (setting [11]).

`CO[C@H]1Cc2ccc(F)c(C(=O)O)c2OB1O` [Compound 19, (R)-7-fluoro-2-hydroxy-3-methoxy-3,4-dihydro-2H-benzo[e][1,2]oxaborinine-8-carboxylic acid]: the pKi in [1] was above 7.00; in assay [2] it was above 7.00; in [3], above 7.00; in assay [4] it was above 7.00; in [5], above 7.00; in [10] it was below 7.00.

`O=C(O)c1cccc2c1OB(O)[C@@H](Sc1nnc[nH]1)C2` [Compound 2, (R)-3-(4H-1,2,4-triazol-3-ylthio)-2-hydroxy-3,4-dihydro-2H-benzo[e][1,2]oxaborinine-8-carboxylic acid]: the pKi was 6.00 to 7.00 in assay [1]; above 7.00 in assay [2]; above 7.00 in assay [3]; 6.00 to 7.00 in assay [4]; 6.00 to 7.00 in assay [6] (setting [11]); 6.00 to 7.00 in assay [5]. Also, the pKi in assay [7] was 7.00 to 8.00.

`C[C@]1(Cn2ccnn2)[C@H](C(=O)O)N2C(=O)C[C@H]2S1(=O)=O` [Tazobactam, reference compound]: the pKi was below 6.00 in [1], 6.00 to 7.00 in [3] and 6.00 to 7.00 in [6].

On to `Nc1nnc(S[C@H]2Cc3ccc(F)c(C(=O)O)c3OB2O)s1` [Compound 23, (R)-3-(5-amino-1,3,4-thiadiazol-2-ylthio)-7-fluoro-2-hydroxy-3,4-dihydro-2H-benzo[e][1,2]oxaborinine-8-carboxylic acid], for which the pKi in [1], in assay [2], in assay [3], in [4] and in assay [5] was above 7.00 in each case.

In the case of `O=C(O)c1cccc2c1OB(O)[C@@H](Sc1nccs1)C2` [Compound 11, (R)-2-hydroxy-3-(thiazol-2-ylthio)-3,4-dihydro-2H-benzo[e][1,2]oxaborinine-8-carboxylic acid], the pKi in assay [2], in assay [3], in [6] (setting [11]) and in assay [5] was above 7.00 each time.
